Data on two compounds can be found in article PMC7403315, “Cyclic peptide FXII inhibitor provides safe anticoagulation in a thrombosis model and in artificial lungs” (Nature Communications, 2020).

Where two headings read alike, the source gives them in different places. Starred links: 1 amine or outer side, 2 acyl side, 3 side chain; linkers in the order of their positions; H or OH if unused. Positions of bridges follow the written chain, without caps; N, C: chain ends. Non-standard residues stand in square brackets, D forms with d. Residues, ends and D or L forms follow the SMILES beside them. TATA = O=C(CC[*:1])N1CN(C(=O)CC[*:2])CN(C(=O)CC[*:3])C1; Phe(4-F) = N[C@@H](Cc1ccc(F)cc1)C(=O)O; β3hR = N=C(N)NCCC[C@H](N)CC(=O)O

In the experiment the target is T1, recombinant human FXIIa (Homo sapiens, UniProt P00748).
T1 construct: made in house; host or cells: CHO cells
T1 sequence (P00748 373-615 limits assumed): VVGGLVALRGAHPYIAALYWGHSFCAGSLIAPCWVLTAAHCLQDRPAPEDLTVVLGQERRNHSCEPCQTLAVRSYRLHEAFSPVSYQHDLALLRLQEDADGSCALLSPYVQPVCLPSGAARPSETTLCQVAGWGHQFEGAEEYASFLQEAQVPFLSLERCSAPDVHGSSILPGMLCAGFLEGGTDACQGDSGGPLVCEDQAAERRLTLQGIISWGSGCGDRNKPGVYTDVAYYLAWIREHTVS
T1 sequence (P00748 20-372 limits assumed): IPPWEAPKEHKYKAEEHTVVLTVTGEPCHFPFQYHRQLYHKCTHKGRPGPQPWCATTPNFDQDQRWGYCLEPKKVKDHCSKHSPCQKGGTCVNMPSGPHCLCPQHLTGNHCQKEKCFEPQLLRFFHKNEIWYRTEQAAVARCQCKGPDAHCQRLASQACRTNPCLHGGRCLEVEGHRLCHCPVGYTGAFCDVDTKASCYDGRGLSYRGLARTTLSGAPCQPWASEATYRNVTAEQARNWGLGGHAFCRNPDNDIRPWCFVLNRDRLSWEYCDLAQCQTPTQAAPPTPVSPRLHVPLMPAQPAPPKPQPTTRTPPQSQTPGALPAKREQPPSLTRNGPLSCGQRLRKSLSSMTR
In words: Inhibition of recombinant FXIIa (rFXIIa). The class given is biochemical. Particulars: for remaining activity at 0.001 µM: peptide 1 nM; for remaining activity at 0.002 µM: peptide 2 nM. An excerpt:
The protein sequences for human, rabbit and pig factor XII were taken from the following database entries: human FXII: UniProtKB - P00748; rabbit FXII: NCBI RefSeq - XP_008253687.1; pig FXII: UniProtKB - O97507. The sequences are shown in the Supplementary Methods. DNA encoding the full-length proteins were ordered from Eurofins Genomics. The codons in these sequences were optimized for mammalian expression using the codon optimization tool from Integrated DNA Technologies (IDT). In addition to the FXII gene, the ordered DNA sequences encode a C-terminal GSGS-linker, a His6-tag and a stop codon, and they are flanked by NheI (GCTAGC) and a HindIII (AAGCTT) restriction sites. The entire DNA sequences are provided in the supporting materials. The DNA sequences were cloned into the pEXPR-IBA42 vector downstream of a BM40 signal sequence for secreted expression in mammalian cells. The ligated vector was transformed into DH5 alpha electrocompetent E. coli cells. Plasmid DNA from single clones was sequenced by Sanger sequencing.
1.5 mg plasmid DNA was transfected into 500 ml CHO cells (Thermo Fisher Scientific) in cell suspension culture using polyethylenimine (PEI). Cells were incubated for seven days at 37 °C, 5% CO2 under shaking conditions. The cells were removed by centrifugation and the secreted protein was purified from the supernatant using a nickel-charged immobilized metal affinity chromatography (IMAC) column (5 ml HisTrap FF Crude, GE Healthcare). The column was equilibrated with buffer containing 15 mM imidazole, 100 mM NaCl, 20 mM Tris-HCl, pH 7.4. The pH of the cell culture supernatant was adjusted to 8.0 using NaOH. The supernatant was run through the column at a flow of 5 ml per min. The column was washed with 20 column volumes of equilibration buffer at a flow of 5 ml per min. The protein was eluted with 500 mM imidazole, 100 mM NaCl, 20 mM Tris-HCl, pH 7.4 at a flow of 5 ml per min. The buffer was subsequently exchanged to 100 mM NaCl, 20 mM Tris-HCl, pH 7.4 by three iterative steps of 10-fold dilution and 10-fold concentration using a 10,000 MWCO centrifugal concentrator. The concentration was determined by measuring absorption at 280 nm (ε = 100,000). For the activation of recombinant FXII, 10 μg protein was diluted to a total volume of 10 μl 100 mM NaCl, 20 mM Tris-HCl, pH 7.4 and further diluted with 10 μl of 2-fold concentrated assay buffer (300 mM NaCl, 20 mM MgCl2, 2 mM CaCl2, 20 mM Tris-HCl, 0.02% (v/v) Triton-X100, pH 7.4). Dextran sulfate 500 kDa (DXS500) was added to a final concentration of 0.2 μg μl^−1 and incubated for 1 hour at 37 °C. 5 μg protein was analyzed by SDS-PAGE under reducing conditions.
Protease inhibition assays
The inhibitory activity of peptides was determined by measuring the residual protease activity with a fluorogenic substrate. The assay was performed in buffer containing 10 mM Tris-Cl, pH […]
1% (v/v) DMSO in a volume of 150 µl. FXIIa activity was measured with the fluorogenic substrate Boc-Gln-Gly-Arg-AMC (Bachem) at a final concentration of 50 µM. Mouse α-FXIIa (Molecular Innovations cat # MFXIIA) and human β-FXIIa (Molecular Innovations cat # HFXIIAB) were used at final concentrations of 0.4 nM. The reaction was pipetted as follows: 50 µl of bicyclic peptide in assay buffer were added to 50 µl of FXIIa in assay buffer and incubated for 10 minutes at 25°C before 50 µl of 150 µM fluorogenic substrate in assay buffer were added to measure the residual protease activity with an Infinite M200Pro fluorescence plate reader (excitation at 368 nm, emission at 467 nm; Tecan) for a period of 30 minutes with a read every minute at 25°C. The Tecan software i-control (version 1.1) was used for data analysis. Stock solutions of 1 mM bicyclic peptide were prepared by either dissolving the unpurified cyclization reaction with water or by dissolving purified and lyophilized peptide in water. The bicyclic peptides were serially diluted two-fold using assay buffer. Sigmoidal curves were fitted to the […]

[1] abbreviates: read-out: Residual activity (%), Recombinant human FXII, individual plates.
Setting [2] is: Recombinant human FXII, individual plates, read-out: Residual activity (%).

Usually Ki stands for a measure of affinity in units of concentration, obtained from inhibition or displacement.

On to `CC(C)C[C@@H]1NC(=O)[C@H](CCC(N)=O)NC(=O)[C@H](Cc2c[nH]cn2)NC(=O)[C@@H]2CSCCC(=O)N3CN(CN(C3)C(=O)CCSC[C@H](NC(=O)[C@@H](CO)NC(=O)[C@H](N)CCCNC(=N)N)C(=O)N[C@@H](Cc3ccc(F)cc3)C(=O)N[C@@H](CCCNC(=N)N)C(=O)N[C@@H](CC(C)C)C(=O)N3CCC[C@H]3C(=O)N2)C(=O)CCSC[C@@H](C(N)=O)NC(=O)C[C@H](CCCNC(=N)N)NC1=O` [FXII900] (H-[dR][dS]C[Phe(4-F)]RLPCHQL[β3hR]C-NH2; linker 3-8-13 via TATA), for which the Ki was found to be 0.51 nM. For the same compound, the remaining activity at 62.5 pM (read-out: Residual activity (%), Recombinant human FXII, peptide 0.0625 nM, individual plates) was determined as 93.8%. Moreover, the remaining activity at 0.000125 µM (read-out: Residual activity (%), Recombinant human FXII, peptide 0.125 nM, individual plates) came out at 87.9%. The remaining activity at 0.0005 µM (read-out: Residual activity (%), Recombinant human FXII, peptide 0.5 nM, individual plates) stood at 61.1%. Under setting [1], the remaining activity at 0.001 µM amounted to 35.5% and the remaining activity at 0.002 µM came out at 10.4%.
Turning to `CC(C)C[C@@H]1NC(=O)[C@H](CCC(N)=O)NC(=O)[C@H](CCCNC(=N)N)NC(=O)[C@@H]2CSCCC(=O)N3CN(CN(C3)C(=O)CCSC[C@H](NC(=O)[C@@H](N)CCCNC(=N)N)C(=O)N[C@@H](Cc3ccccc3)C(=O)N[C@@H](CCCNC(=N)N)C(=O)N[C@@H](CC(C)C)C(=O)N3CCC[C@H]3C(=O)N2)C(=O)CCSC[C@@H](C(=O)N[C@@H](CCCNC(=N)N)C(N)=O)NC(=O)[C@H](CCCNC(=N)N)NC1=O` [FXII618], under setting [2], the remaining activity at 0.001 µM came out at 87.7% and the remaining activity at 0.002 µM turned out to be 78.5%. The remaining activity at 0.004 µM (Recombinant human FXII, peptide 4 nM, individual plates, read-out: Residual activity (%)) was determined as 65.2%. Also, the remaining activity at 0.008 µM (Recombinant human FXII, peptide 8 nM, individual plates, read-out: Residual activity (%)) was determined as 47.5%. Also, the remaining activity at […] (Recombinant human FXII, peptide 16 nM, individual plates, read-out: Residual activity (%)) amounted to 30%. In addition, the remaining activity at […] (Recombinant human FXII, peptide 32 nM, individual plates, read-out: Residual activity (%)) was 16.5%. Besides, the remaining activity at 0.064 µM (Recombinant human FXII, peptide 64 nM, individual plates, read-out: Residual activity (%)) was determined as 6.9%.
